# Assays:
# [1] = molecular target: T1, Human pancreatic lipase (Homo sapiens, UniProt P16233); test: Lipase assay (Sigma Lipase-PS Kit); assay type: biochemical; details: same top concentration (0.15 mg/ml)
# T1 construct: purchased Sigma
# T1 sequence (P16233 17-465): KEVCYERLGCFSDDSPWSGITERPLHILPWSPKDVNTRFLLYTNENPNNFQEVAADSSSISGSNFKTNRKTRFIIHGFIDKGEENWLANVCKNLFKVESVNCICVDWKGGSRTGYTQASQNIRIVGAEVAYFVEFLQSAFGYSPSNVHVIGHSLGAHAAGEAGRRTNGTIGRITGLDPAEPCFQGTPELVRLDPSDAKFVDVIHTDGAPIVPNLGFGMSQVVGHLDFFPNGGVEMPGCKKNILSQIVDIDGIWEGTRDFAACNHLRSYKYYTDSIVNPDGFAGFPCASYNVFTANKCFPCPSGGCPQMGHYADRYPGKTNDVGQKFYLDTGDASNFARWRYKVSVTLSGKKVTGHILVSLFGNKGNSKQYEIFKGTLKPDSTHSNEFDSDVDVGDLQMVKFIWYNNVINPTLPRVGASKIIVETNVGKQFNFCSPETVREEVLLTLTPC
# T1 sequence (P02703 23-112 partner): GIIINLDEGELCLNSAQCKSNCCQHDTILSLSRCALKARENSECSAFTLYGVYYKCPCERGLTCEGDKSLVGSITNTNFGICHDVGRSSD
# Method: (§1) The purified compounds and extracts were made up 2 mg/ml solutions in water using initially a drop of DMSO if required for solubility.
# Sigma Lipase-PS Kit (Catalogue Number 805-A)
# Human pancreatic lipase was diluted 1.5:5 prior to use. […] Color formation was measured at 550 nm after 30 minutes.
# [2] = molecular target: T2, porcine pancreatic amylase (Sus scrofa, UniProt P00690); test: Amylase assay (Sigma INFINITY reagent); assay type: biochemical, pig; details: tested at 0.12 mg/ml, mean n=3
# T2 construct: purchased Sigma A6255
# T2 sequence (P00690 16-511): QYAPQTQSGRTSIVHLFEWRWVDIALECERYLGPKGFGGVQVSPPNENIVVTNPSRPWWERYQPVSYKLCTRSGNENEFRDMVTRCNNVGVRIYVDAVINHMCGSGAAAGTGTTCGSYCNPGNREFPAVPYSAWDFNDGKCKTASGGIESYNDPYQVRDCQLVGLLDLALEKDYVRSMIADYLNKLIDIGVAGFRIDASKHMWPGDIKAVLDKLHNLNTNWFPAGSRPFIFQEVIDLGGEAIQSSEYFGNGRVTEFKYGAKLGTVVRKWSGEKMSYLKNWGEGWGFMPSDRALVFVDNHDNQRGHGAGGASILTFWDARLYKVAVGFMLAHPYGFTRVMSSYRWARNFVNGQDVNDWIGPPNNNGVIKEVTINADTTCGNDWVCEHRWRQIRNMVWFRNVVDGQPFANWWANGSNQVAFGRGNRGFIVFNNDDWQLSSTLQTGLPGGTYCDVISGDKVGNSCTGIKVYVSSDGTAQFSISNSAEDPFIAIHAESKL
# Method: as §1
# Sigma INFINITY Powder Reagent (Catalogue Number 568-20)
# Sigma α-amylase (A6255, porcine pancreatic amylase as saline suspension), diluted to 35 units/ml. […] The rate of color formation was measured over five minutes, after which the final absorbance was measured at 405 nm as an endpoint recording.
# [3] = system: α-glucosidase (G5003, from S. cerevisiae); test: α-Glucosidase assay (p-nitrophenyl-α-D-glucopyranoside); assay type: biochemical; details: tested at 0.28 mg/ml, mean n=3
# Method: as §1
Compound,"α-amylase inhibition (in words, FIG. 2) [2]",inhibition at 150 µg/mL [1] [%],"α-glucosidase inhibition (in words, FIG. 2) [3]"
CCCCCCCCCCC[C@@H](C[C@@H]1OC(=O)[C@H]1CCCCCC)OC(=O)[C@H](CC(C)C)NC=O [Orlistat],,≤ 60,
"COc1cc(O)c2c(=O)c(O[C@@H]3O[C@@H](C)[C@H](O)[C@@H](O)[C@H]3O)c(-c3ccc(O)c(O)c3)oc2c1 [compound 3, rhamnitrin]",inhibition to be restored,,
"Oc1ccc(/C=C2\c3cc(O)cc(O)c3C(c3ccc(O)cc3)C2c2cc(O)cc(O)c2)cc1 (stereo not drawn) [compound 6, parthenocissin A]",good inhibition,,
"Oc1ccc(C=C2c3c(O)cc(O)cc3C(c3ccc(O)cc3)C2c2cc(O)ccc2O)cc1 (stereo not drawn) [compound 7, 3-(4-hydroxybenzylidene)-2-(2,5-dihydroxyphenyl)-1-(4-hydroxyphenyl)indane-4,6-diol]",,,fairly specific as an inhibitor
quercitrin-3-O″-acetate [compound 5],inhibition to be restored,,promoted the glucosidase activity

# — US8362090B2, “Methods and related compositions using specific flavonoids and indanes to reduce weight and inhibit lipase, α-amylase and α-glucosidase activity in mammals” (Gateway Health Alliances, Inc., priority 2007, dated 2013)
